Data on one compound can be found in US20250242040A1, “ALBUMIN CONJUGATE, PREPARATION METHOD THEREFOR AND USE THEREOF” (Suzhou KangDeRui Pharmaceutical, Ltd., priority 2023, published 2025).

The test system of this experiment is A-549 cells. Nature of the experiment: Apoptosis assay of A-549 cells by flow cytometry (in vitro cytotoxic activity). The format is cell-based. The method, then: The apoptosis of A-549 cells was analyzed by flow cytometry (FIG. 2).
(A flow cytometer gives signals particle by particle.)

Non-standard residues stand in square brackets, D forms with d. Residues, ends and D or L forms follow the SMILES beside them. Dolaproine = CO[C@@H]([C@@H]1CCCN1)[C@@H](C)C(=O)O; Dil = CC[C@H](C)[C@H](NC)[C@@H](CC(=O)O)OC; NMeV = CN[C@H](C(=O)O)C(C)C

Turning to `CC[C@H](C)[C@@H]([C@@H](CC(=O)N1CCC[C@H]1[C@H](OC)[C@@H](C)C(=O)N[C@@H](Cc1ccccc1)C(=O)O)OC)N(C)C(=O)[C@@H](NC(=O)[C@@H](NC)C(C)C)C(C)C` [MMAF, monomethyl auristatin F] (H-[NMeV]V[Dil][Dolaproine]F-OH), the apoptosis efficiency turned out to be 12.3%.
